The text below walks through data of patent publication US4698344A, “1-Heteroaryl-4-aryl-pyrazolin-5-ones for use as medicaments” (priority 1984, dated 1987).

The conditions of data set [1]: administered systemically (for example orally); cited from earlier work.
For data set [2], the target named is T1, cyclooxygenase (Rattus norvegicus, UniProt Q63921).
T1 construct: homogenates of RBL-1 cells; endogenous in cells; host or cells: RBL-1 (rat basophilic leukaemia) cells, homogenate
T1 sequence (Q63921 27-602): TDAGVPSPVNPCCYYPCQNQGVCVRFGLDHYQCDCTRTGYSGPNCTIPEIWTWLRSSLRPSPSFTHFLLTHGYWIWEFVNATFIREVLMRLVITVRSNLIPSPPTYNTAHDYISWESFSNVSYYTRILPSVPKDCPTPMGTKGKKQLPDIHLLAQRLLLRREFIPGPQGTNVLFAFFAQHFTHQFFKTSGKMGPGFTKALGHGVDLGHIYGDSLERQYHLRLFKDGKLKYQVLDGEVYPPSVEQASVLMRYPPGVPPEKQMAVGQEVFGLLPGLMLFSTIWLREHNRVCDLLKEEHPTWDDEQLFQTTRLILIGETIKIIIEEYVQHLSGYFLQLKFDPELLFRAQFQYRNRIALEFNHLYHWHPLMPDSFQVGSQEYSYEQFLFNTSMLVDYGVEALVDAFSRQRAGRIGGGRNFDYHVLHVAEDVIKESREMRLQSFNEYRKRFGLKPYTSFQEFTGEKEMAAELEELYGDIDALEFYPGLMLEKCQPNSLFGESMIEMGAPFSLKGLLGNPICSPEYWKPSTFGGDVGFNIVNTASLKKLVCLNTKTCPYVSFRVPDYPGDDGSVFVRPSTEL
Put plainly: Cyclooxygenase activity in homogenates of RBL-1 cells. In kind it is biochemical. As to conditions: concentration 0.5-1 μg/ml; negative = inhibition. From the text: (§1) Basophilic leukaemia cells from rats (RBL-1) synthesize both lipoxygenase and cyclooxygenase products from ^14 C-arachidonic acid with which they are supplied. […] The products formed were separated by thin layer chromatography and quantified in a scanner.

The target of data set [3] is T2, 5-lipoxygenase (Homo sapiens, UniProt P09917).
T2 construct: endogenous in cells; host or cells: human polymorphonuclear leukocytes from heparinized whole blood
T2 sequence (P09917 1-674): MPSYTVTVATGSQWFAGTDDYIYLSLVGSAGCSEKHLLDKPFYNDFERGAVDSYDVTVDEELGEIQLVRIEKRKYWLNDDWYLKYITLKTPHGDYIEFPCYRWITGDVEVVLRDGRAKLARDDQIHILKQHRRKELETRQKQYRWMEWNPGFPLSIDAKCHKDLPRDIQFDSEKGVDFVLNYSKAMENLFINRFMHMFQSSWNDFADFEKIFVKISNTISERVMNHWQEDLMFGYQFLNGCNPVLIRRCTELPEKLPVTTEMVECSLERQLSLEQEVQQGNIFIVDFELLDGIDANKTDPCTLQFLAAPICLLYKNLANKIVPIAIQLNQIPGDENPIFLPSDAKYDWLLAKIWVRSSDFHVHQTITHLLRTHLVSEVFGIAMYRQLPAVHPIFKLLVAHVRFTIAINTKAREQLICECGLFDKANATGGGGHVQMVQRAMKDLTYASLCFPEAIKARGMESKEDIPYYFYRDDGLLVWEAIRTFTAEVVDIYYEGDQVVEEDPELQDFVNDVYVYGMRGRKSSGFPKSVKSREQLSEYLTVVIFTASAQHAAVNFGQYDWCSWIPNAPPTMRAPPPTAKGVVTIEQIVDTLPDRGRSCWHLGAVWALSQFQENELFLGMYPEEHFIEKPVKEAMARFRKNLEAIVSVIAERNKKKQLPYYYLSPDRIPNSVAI
Put plainly: Lipoxygenase activity (LTB4 synthesis) in human PMN leukocytes stimulated with A 23187. In kind it is cell-based. As to conditions: read-out: Inhibition of LTB4 synthesis in human PMN's. Here is the method:
The polymorphonuclear leukocytes of humans metabolize arachidonic acid to give 5-hydroxy-5,8,11,14-eicosatetraenoic acid (5-HETE) and leukotriene B4 (5S, 12R-dihydroxy-6-cis, 8,10-trans-14ciseicosatetraenoic acid). Inhibition of the release of 5-HETE and leukotriene B4 from leukocytes is a measure of the lipoxygenase-inhibiting effect of the compounds according to the invention.
After 15 minutes, the lipoxygenase products were extracted from the acidified incubation medium and separated by means of HPLC.

The subject of data set [4] is release of leukotrienes (SRS-A). Put plainly: Passive peritoneal anaphylaxis (rats). In kind it is in vivo, rat. The following applies: 100 mg/kg perorally. Here is the method: The effect of substances on the release of mediators, in particular the release of leukotrienes, is recorded with this in vivo method. […] Histamine is not released during this, so that the lipoxygenase-inhibiting action of test substances can be investigated selectively.

The target of data set [5] is T3, lipoxygenase (Rattus norvegicus, UniProt P12527).
T3 construct: homogenates of RBL-1 cells; endogenous in cells; host or cells: RBL-1 (rat basophilic leukaemia) cells, homogenate
T3 sequence (P12527 1-673): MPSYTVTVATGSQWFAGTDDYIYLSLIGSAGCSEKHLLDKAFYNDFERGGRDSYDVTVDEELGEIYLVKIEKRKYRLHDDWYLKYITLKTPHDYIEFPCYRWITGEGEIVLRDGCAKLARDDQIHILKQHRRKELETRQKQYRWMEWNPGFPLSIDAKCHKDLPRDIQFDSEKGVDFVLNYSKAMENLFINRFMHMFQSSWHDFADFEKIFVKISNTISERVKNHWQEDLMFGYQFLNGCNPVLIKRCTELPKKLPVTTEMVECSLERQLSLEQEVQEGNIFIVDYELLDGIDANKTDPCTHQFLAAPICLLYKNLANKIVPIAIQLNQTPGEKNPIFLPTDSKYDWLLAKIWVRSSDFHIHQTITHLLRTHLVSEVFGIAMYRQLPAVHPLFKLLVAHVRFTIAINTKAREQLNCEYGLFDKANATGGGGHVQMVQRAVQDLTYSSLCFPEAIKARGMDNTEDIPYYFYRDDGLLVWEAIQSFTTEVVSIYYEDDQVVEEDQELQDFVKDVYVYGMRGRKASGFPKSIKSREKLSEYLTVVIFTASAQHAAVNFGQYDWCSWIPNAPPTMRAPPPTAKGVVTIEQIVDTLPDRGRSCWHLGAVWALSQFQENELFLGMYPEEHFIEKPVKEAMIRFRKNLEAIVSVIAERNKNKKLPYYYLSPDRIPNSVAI
The data set can be described thus: Lipoxygenase activity in homogenates of RBL-1 cells. As to conditions: concentration 0.5-1 μg/ml; negative = inhibition. In kind it is biochemical.
From the text: as §1

For data set [6], the system named is carrageenan-induced oedema of the rat paw. The data set can be described thus: Carrageenan-induced oedema of the rat paw. In kind it is in vivo. Here is the method: The antiinflammatory action of the test substances following oral administration was determined with the aid of carrageenan-induced oedema of the rat paw.
The experiments were carried out with male rats, strain: Bor:WLSW (SPF-Cpb); weight 150 to 220 g. One hour before inducing the oedema (0.1 ml of carrageenan suspension/animal, subplantar injection), the substance to be tested was administered to the animals as a suspension in tragacanth with the aid of a stomach tube; as a control, a second group of animals was treated with tragacanth without the substance.
The paw volumes were measured by the method of F. Kemper and G. Ameln Z. exp.

For the molecule `NC1=NN(c2cccc(C(F)(F)F)c2)CC1` [BW 755C, 3-amino-1-(3-trifluoromethylphenyl)-pyrazoline], the “toxic side effects (in words)” value in data set [1] was “toxic side effects”.

As for `O=c1c(-c2ccccc2)c[nH]n1-c1ccccn1` [Example 7, 1-pyrid-2-yl-4-phenyl-pyrazolin-5-one], in data set [2], the “Action on cyclooxygenase (CO): Effect” value was “+28%”. Further, in data set [3], the inhibition at 10 µg/mL stood at 92%. The “% inhibition, passive peritoneal anaphylaxis” value in data set [4] is given as 65%. Also, the “Action on lipoxygenase (LO): Effect” value in data set [5] was -66%. Besides, the ED50 in data set [6] (Rattus norvegicus, po, 5 h, read-out: ED50 of oedema inhibition) was 9.1 mg/kg. Besides, the “% inhibition of the carrageenan oedema” value in data set [6] (oral, 2.5 mg/kg, rats, 5 hours after oedema provocation) is listed as 44%.

The term inhibition denotes the percentage by which the read-out fell short of the control. What is called ED50 is the dose at which the effect has come halfway, by size or by number of responders.
